Test results as given in US20240189307A1, “METHODS OF STABILIZING THE NEURONAL PROTEOME AGAINST COLLAPSE AND PROTECTING VASCULAR CELLS” (ALBERT EINSTEIN COLLEGE OF MEDICINE, priority 2021, published 2024).

How the values were obtained:
[1] = Blood cell count and histopathology of peripheral organs (liver, lung, kidney) after daily oral administration; type: in vivo; conditions: after 3 months of daily treatment
[2] = Pharmacokinetic analysis in mice brain after p.o. and i.v. administration; type: in vivo; conditions: p.o. 10 mg/Kg and i.v. 1 mg/kg
[3] = tested on: KFERQ-Dendra mice; assay: CMA activation in brain of KFERQ-Dendra mice; conditions: administered in vivo
Source text: To test this possibility, we measured CMA in a mouse model of tau-mediated proteotoxicity expressing mutant human tau (hTau^P301L) under the Thy 1.2 promotor (line pR5). We crossed hTau^P301L mice with a transgenic mouse model that expresses systemically a KFERQ-tagged fluorescent protein Dendra2 (KFERQ-Dendra), recently developed by our group. This reporter protein, when targeted for degradation via CMA, highlights lysosomes as fluorescent puncta, that can be counted as read out of CMA activity.

[4] = tested on: NIH3T3 cells stably expressing the KFERQ-PS-Dendra reporter; assay: CMA activity in cells with KFERQ-PS-Dendra reporter (fluorescent puncta per cell); type: cell-based, mouse; conditions: increasing concentrations; 12 h, 16 h or 24 h treatment
Procedure: FIG. 10. Characterization of the brain permeable chemical activator of CMA and effect in a mouse model of Frontotemporal dementia-related proteotoxicity. (A) Chemical structure of AR7 and CA77.1. (B) Quantification of the effect of adding increasing concentrations of AR7 and CA77.1 to NIH3T3 cells stably expressing the KFERQ-PS-Dendra reporter. CMA activity was quantified after 16 h treatment as the average of fluorescent puncta per cell. (n>800 cells per condition). (C) Autophagic flux in NIH3T3 cells incubated at 37° C. for 16 h with 20 µM AR7 or CA77.1 or without additions (none). Where indicated lysosomal protease inhibitors (PI) were added to the cells 6 h before lysis. Left: representative immunoblot. […] Right: quantification of LC3-II flux as the difference in LC3-II levels in cells treated with PI relative to untreated. […] (D) Quantification of the effect of adding increasing concentrations of AR7 and CA77.1 to NIH3T3 cells stably expressing the KFERQ-PS-Dendra reporter. CMA activity was quantified after 12 h or 24 h treatment as the average of fluorescent puncta per cell. […] Representative immunoblot of 4-5 mice per genotype and treatment (L) and densitometric quantification of AT8 as monomer [Kruskal-Wallis statistic=20.48, p<0.0001] […] (O, P) Quantification of the number of Iba1-positive microglial cells per mm^2 in the hippocampus [Kruskal-Wallis statistic=10.55, p=0.0051] […]

CC(=O)Nc1ccc(-c2cnc3cc(Cl)ccc3n2)cc1 [CA77.1]
blood or major organs toxicity [1]: absence of blood or major organs toxicity
brain penetrance and pharmacokinetics [2]: brain penetrance with favorable pharmacokinetics
activation of CMA in brain in vivo [3]: activation of CMA in brain of KFERQ-Dendra mice
CMA activity in vitro [4]: activates CMA in vitro in dose- and time-dependent manner
